Data reported in patent US20220296547A1, “METHODS AND COMPOSITIONS FOR TREATMENT OF DISEASES” (Tranexamic Technologies, LLC, priority 2020, published 2022).
“Also recorded” adds a separate entry of the source.

Key:
[1] = test system: HCI-012/LVM2/LR10 drug-resistant, HER2+, metastatic breast cancer; test: Breast tumor growth in patient-derived model; format: in vivo, mice; settings: orally, once daily, 375 mg/kg
MDA-MB 468 cells = test: MTT assay with tranexamic acid derivatives; format: cell-based, human; settings: MDA-MB 468, 72 h, increasing concentrations
Description: MDA-MB 468 cells were plated at 6,250 cells per well in a 96-well plate and incubated overnight at 37° C. […] Cell viability was evaluated using an MTT assay.

PAI-1 = PAI-1 levels in MDA-MB-231 breast cancer cell extracts; format: cell-based; settings: FIG. 6
Excerpt: (§1) None of the treatments altered the overall pattern of protein tyrosine phosphorylation. […] Cleavage of CDCP1 may play a role in driving tumor invasion given the preferential binding of the cleaved form of CDCP1 with cell adhesion molecules such as beta1-integrin and E-cadherin.

[2] = test system: programmed death-ligand 1 (PD-L1); test: PD-L1 expression (FIG. 18); format: cell-based; settings: high concentration (2%)
[3] = test system: lysine acetylation of cellular proteins; test: Lysine acetylation of cellular proteins and histones (FIG. 8); format: cell-based
[4] = target: p300 acetyltransferase enzyme (Homo sapiens, UniProt Q09472); test: p300 acetyltransferase enzyme assays (immunoblot H3K9Ac / H3K27Ac); settings: two sets of enzyme assays
Description: This is measured by immunoblotting with antibodies that specifically recognize histone 3 (H3) acetylated (Ac) on lysine (K) number 9 or 27.

MDA-MB-468 cells = test: MTT cell viability assay (FIG. 2); format: cell-based, human; settings: MDA-MB-468, known to overexpress MYC
[5] = intravenous doses of 80-100 mg/kg and above, e.g. during heart surgery; cited from earlier work
S6K1 (p70s6k) = test: Ribosomal S6 protein phosphorylation; format: cell-based
Excerpt: (§2) The N-Myc-related gene c-Myc, or MYC, is frequently overexpressed in many human cancers, including breast cancer.

[6] = test system: human mammary epithelia cells (HMEC); test: DNA synthesis (tritiated thymidine incorporation); format: cell-based; settings: HMEC non-transformed epithelial line; 24 h
[7] = test system: epidermal growth factor receptor (EGFR); test: EGFR expression (FIG. 8); format: cell-based
[8] = test system: HCI-001 breast cancer cells; test: MTT cell viability assay; format: cell-based
[9] = test system: broad array of cancer and epithelial cell lines; test: MTT cell viability assays with increasing concentrations (FIG. 2, FIG. 5); format: cell-based
[10] = test system: MCF10A cells overexpressing the MYC oncogene; test: MTT assay, MYC overexpressing versus vector control cells; format: cell-based, human
Excerpt: as §2

STAT3 = STAT3 phosphorylation; format: cell-based
Excerpt: as §2

[11] = test system: protein lysine acetylation in a second breast cancer cell line; test: Protein lysine acetylation over time (FIG. 10); format: cell-based; settings: as early as 4 h
cell cycle = test: Cell cycle study; format: cell-based
[12] = test system: AKT in MYC overexpressing MCF10A cells; test: AKT activity (phospho-AKT substrate antibody); format: cell-based, human
Excerpt: as §2

[13] = test system: MDA-MB-468 breast cancer cells; test: Markers of the mitotic phase (cyclin B, MPM2); format: cell-based, human; settings: 1%
histone H3 = test: Acetylation of histone H3 on lysine 27 and lysine 9; format: cell-based
plasmin [14] = target: T1, plasmin (Homo sapiens, UniProt P00747); settings: accepted value from studies; cited from earlier work
Target sequence in this assay (P00747 20-810 limits assumed): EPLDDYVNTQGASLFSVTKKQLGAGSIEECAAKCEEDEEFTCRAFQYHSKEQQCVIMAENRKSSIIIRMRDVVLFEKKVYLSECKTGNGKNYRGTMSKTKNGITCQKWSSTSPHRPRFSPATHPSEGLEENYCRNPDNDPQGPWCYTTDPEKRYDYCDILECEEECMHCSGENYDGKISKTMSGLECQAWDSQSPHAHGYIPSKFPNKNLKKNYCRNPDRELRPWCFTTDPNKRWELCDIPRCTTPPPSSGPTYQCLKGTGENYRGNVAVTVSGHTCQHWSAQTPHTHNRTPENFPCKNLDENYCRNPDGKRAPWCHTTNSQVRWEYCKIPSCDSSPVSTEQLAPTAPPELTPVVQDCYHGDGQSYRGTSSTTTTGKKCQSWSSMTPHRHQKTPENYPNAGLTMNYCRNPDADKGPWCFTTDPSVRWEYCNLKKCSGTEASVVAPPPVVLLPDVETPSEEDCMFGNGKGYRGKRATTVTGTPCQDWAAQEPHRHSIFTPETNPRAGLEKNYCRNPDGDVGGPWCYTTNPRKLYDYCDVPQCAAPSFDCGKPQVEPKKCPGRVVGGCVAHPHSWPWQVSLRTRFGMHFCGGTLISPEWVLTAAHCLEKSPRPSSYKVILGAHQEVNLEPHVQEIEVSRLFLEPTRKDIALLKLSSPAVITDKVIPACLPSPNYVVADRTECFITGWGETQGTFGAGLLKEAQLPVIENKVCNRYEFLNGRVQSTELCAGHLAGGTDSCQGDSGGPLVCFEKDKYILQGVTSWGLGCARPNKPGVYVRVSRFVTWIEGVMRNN

[15] = test system: human keratinocytes (HaCaT); test: DNA synthesis (tritiated thymidine incorporation); format: cell-based; settings: HaCaT non-transformed epithelial line; 24 h
[16] = test system: BT474 breast cancer cells; test: Markers of the mitotic phase (cyclin B, MPM2); format: cell-based; settings: 1%
[17] = test system: AKT in MDA-MB-468 human breast cancer cell line; test: AKT activity (phospho-AKT substrate antibody); format: cell-based
Excerpt: as §2

[18] = test system: histone lysine acetylation; test: Histone lysine acetylation in BT474 cells; format: cell-based
plasmin [19] = target: T1, plasmin; settings: cited from earlier work
Target sequence in this assay (P00747 581-810 limits assumed, species assumed): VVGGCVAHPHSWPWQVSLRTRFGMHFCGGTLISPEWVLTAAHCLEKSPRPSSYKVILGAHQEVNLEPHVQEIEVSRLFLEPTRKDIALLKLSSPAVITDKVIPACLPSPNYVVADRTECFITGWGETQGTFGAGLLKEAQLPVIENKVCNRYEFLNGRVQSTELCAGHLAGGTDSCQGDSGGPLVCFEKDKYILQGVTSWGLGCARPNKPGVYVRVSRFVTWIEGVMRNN
Target sequence in this assay (P00747 97-580 partner limits assumed, species assumed): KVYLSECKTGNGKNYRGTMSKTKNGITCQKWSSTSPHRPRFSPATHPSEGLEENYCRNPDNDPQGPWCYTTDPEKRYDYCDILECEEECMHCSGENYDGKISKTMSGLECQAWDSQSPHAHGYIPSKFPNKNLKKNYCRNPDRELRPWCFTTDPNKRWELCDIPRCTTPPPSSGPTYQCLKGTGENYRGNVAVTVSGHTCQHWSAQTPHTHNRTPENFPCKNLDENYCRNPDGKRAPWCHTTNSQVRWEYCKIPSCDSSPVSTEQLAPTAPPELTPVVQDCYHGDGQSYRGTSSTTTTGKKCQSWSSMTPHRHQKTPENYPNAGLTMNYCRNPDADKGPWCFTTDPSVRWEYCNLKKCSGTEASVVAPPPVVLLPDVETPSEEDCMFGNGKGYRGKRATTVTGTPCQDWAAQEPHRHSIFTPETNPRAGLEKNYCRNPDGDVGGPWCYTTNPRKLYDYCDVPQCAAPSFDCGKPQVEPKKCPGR

non-melanoma skin cancer = settings: mice, long-term UV irradiation; cited from earlier work
[20] = test system: BT474, MDA-MB-468, B16, KPPC, HMEC and HaCaT cell lines; test: DNA synthesis (tritiated thymidine incorporation), cell line panel; format: cell-based; settings: 24 h treatment, 0 to 8%, DNA synthesis during a 3 h window
[21] = test system: BT474 breast cancer cells; test: DNA synthesis (tritiated thymidine incorporation); format: cell-based; settings: 24 h treatment, 0 to 8%
[22] = test system: SH-SY5Y neuroblastoma cells; test: MTT cell viability assay; format: cell-based
CDCP1 cleavage = CDCP1 cleavage in MDA-MB-231 breast cancer cell extracts; format: cell-based
Excerpt: as §1

Sequence of p300 acetyltransferase enzyme (Q09472 whole entry): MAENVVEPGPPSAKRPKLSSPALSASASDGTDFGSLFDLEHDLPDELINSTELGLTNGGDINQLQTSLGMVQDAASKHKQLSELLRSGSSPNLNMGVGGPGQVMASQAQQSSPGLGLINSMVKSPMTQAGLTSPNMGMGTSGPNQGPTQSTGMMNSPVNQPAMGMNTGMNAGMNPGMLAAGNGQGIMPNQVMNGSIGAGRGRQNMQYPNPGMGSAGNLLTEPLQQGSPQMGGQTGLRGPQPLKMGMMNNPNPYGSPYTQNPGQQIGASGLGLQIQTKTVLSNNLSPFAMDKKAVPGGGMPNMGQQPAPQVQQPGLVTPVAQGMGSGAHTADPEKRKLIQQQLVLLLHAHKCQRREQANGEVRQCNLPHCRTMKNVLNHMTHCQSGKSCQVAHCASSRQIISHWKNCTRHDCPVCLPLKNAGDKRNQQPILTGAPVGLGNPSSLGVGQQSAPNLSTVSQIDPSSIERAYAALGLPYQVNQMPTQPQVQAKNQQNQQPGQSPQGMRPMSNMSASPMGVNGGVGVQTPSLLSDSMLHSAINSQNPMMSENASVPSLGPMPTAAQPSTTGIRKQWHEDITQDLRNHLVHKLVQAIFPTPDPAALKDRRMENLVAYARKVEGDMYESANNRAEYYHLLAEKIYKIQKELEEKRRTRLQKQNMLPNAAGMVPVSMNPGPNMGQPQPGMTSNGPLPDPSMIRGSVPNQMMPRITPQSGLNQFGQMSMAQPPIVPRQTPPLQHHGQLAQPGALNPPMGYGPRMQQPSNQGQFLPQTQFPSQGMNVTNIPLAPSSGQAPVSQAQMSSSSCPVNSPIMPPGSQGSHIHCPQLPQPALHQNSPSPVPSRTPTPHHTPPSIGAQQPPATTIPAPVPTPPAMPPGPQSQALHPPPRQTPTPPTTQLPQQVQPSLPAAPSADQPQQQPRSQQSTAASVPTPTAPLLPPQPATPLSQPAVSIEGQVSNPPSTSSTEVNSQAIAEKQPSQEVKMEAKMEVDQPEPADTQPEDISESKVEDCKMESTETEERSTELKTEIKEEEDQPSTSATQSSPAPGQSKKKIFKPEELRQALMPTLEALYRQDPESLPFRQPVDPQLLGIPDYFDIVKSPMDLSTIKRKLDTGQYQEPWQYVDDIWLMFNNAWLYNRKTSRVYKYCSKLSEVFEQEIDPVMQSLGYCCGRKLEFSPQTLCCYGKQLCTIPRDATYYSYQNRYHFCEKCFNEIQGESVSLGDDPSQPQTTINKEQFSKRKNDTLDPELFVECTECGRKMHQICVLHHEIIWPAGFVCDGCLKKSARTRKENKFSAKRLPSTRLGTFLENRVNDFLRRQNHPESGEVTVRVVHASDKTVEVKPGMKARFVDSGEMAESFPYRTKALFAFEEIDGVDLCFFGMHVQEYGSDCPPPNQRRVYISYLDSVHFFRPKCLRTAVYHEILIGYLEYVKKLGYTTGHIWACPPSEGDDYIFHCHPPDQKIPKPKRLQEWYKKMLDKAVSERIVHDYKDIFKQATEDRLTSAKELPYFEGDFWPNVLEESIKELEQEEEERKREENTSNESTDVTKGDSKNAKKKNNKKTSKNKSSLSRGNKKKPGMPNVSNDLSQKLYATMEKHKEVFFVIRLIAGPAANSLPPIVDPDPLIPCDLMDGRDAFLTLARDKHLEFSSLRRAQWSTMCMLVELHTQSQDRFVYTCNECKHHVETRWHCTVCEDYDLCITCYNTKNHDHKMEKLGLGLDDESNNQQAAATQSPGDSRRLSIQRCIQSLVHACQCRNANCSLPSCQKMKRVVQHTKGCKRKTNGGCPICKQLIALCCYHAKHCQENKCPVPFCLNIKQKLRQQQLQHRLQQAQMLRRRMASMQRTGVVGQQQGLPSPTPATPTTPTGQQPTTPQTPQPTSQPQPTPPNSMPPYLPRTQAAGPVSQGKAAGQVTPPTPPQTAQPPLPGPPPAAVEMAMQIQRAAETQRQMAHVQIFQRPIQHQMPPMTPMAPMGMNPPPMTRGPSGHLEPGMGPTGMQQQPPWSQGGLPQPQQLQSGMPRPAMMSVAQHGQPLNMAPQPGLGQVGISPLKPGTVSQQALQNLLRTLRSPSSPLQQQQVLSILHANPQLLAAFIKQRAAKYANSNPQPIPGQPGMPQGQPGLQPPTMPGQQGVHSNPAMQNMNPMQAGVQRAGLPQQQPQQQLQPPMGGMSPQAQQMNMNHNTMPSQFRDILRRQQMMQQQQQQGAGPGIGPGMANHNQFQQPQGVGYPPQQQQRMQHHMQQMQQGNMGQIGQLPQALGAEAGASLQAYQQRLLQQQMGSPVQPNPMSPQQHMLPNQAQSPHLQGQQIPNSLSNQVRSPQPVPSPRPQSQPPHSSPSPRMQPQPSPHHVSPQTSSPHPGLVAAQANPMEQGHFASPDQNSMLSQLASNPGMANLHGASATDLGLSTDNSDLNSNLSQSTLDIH

p300 acetyltransferase activity [4]: inhibits p300 activity | expression of EGFR ([7]; FIG. 8): decreases expression | EGFR downregulation ([7]; FIG. 8, as worded): did not increase
SMILES: NC[C@H]1CC[C@H](C(=O)O)CC1 [tranexamic acid]
tumor growth versus vehicle (water) [1]: suppresses tumor growth more effectively than a vehicle | cell viability (MTT) (MDA-MB 468 cells): reduced MDA-MB 468 cell viability | PAI-1 levels / expression (PAI-1): without increasing PAI-1 levels | PD-L1 expression [2]: did not | histone acetylation compared with vehicle treatment [3]: suppressed histone acetylation | levels of lysine acetylation of cellular proteins [3]: reduces the levels of lysine acetylation | sensitivity compared to other cell lines tested (MTT) (MDA-MB-468 cells): most sensitive | seizure risk [5]: risk of seizure | p70s6k inhibition (S6K1 (p70s6k)): inhibits p70s6k | phosphorylation of the ribosomal S6 protein (S6K1 (p70s6k)): reduced phosphorylation of the ribosomal S6 protein | proliferation (DNA synthesis) [6]: affects the proliferation | cell viability (MTT) [8]: decreased viability | cell viability (MTT) across cell lines [9]: all lines are inhibited; also recorded: dose dependently suppresses the viability | sensitivity of MYC overexpressing cells versus unaltered control cells (MTT) [10]: significant increase in tranexamic acid sensitivity; also recorded: significantly more sensitive | STAT3 phosphorylation on Serine 727 (STAT3): not Serine 727 | STAT3 phosphorylation on Tyrosine 705 (STAT3): decreases STAT3 phosphorylation on Tyrosine 705 | protein lysine acetylation [11]: reduces protein lysine acetylation | cell cycle arrest (cell cycle): causes G2/M-phase cell cycle arrest | AKT activity [12]: suppressed AKT activity | markers of the mitotic phase of the cell cycle (cyclin B, MPM2) [13]: elevates markers of the mitotic phase | acetylation of histone H3 on lysine 9 (histone H3; carried out by other enzymes): not on lysine 9 | acetylation of histone H3 on lysine 27 (histone H3; carried out by p300 and CBP): blocks acetylation | blood concentration required to inhibit formation of plasmin and provide antifibrinolysis (plasmin [14]): 10 to 20 µg/mL | proliferation (DNA synthesis) [15]: affects the proliferation | markers of the mitotic phase of the cell cycle (cyclin B, MPM2) [16]: elevates markers of the mitotic phase | AKT activity [17]: suppressed AKT activity | effect on histone acetylation in presence of the histone deacetylase inhibitor SAHA [18]: did not overcome the effects of the histone deacetylase inhibitor SAHA | histone lysine acetylation ([18]; particularly at higher concentrations): suppressed histone lysine acetylation | plasmin protease activity (plasmin [19]): directly inhibits plasmin protease activity | non-melanoma skin cancer development (non-melanoma skin cancer): reduced | plasma MMP-9 and IL-6, skin plasmin, CC chemokine 2, macrophages, STAT3, cyclin D and VEGF-A (non-melanoma skin cancer): suppresses increases | DNA synthesis / cell proliferation across cell lines [20]: suppresses the proliferation; also recorded: affected all the cell lines examined | sensitivity of DNA synthesis compared to other cell lines [21]: most sensitive to low concentrations | cell viability (MTT) ([22]; SH-SY5Y neuroblastoma cells): decreased viability | sensitivity compared to other cell lines tested (MTT) ([22]; SH-SY5Y, N-Myc amplified / MYC overexpressed): most sensitive | CDCP1 cleavage at lowest concentration (CDCP1 cleavage; 0.5%): good inhibition of CDCP1 cleavage | CDCP1 cleavage (CDCP1 cleavage; MDA-MB-231 breast cancer cell extracts): blocks CDCP1 cleavage
